# Laboratory results: PMC10897374, “Synthetic angiotensin II peptide derivatives confer protection against cerebral and severe non-cerebral malaria in murine models” (Scientific Reports, 2024)
# Where a SMILES comes first, the peptide text is derived from it. Bridges are numbered along the chain shown (N, C = ends). Where no end group is shown, it is not given here.
# Experiments:
# Plasmodium = conditions: same mouse model (ECM), infected mice treated with the ACE inhibitor; cited from earlier work
# mouse muscle tissue = conditions: cited from earlier work
# [1] = system: C57BL/6 mice infected with P. berghei ANKA; assay: SHIRPA behavioral tests in the ECM model; assay type: in vivo, mouse; conditions: day 5 post-infection, difference of scores before and after infection, vs vehicle (PBS)
# Source text: C57BL/6 mice were used for the experimental cerebral malaria model, and the assays were defined by the presence of at least two of the following clinical signs of neurological involvement: ataxia, paralysis of the limbs, poor correction reflex, convulsions, and coma. A series of SHIRPA tests (SmithKline Beecham, Harwell, Imperial College, Royal London Hospital, phenotype assessment) was used to evaluate behavioral, motor, and neurological changes during the development of the P. berghei infection. Tests aimed at evaluating cognitive and behavioral parameters were selected to assess brain impairment of the mice. The tests described below were initially performed on animals not yet infected at day 0. Next, the mice were treated and infected as described earlier. Five days after infection, the tests were repeated and the results were expressed as the difference between the sum of the scores before and after infection with P. berghei. […]
# After five minutes of the test described above, the animals were transferred to the arena without being touched. The observation of the immediate reactions to the new environment was recorded for thirty seconds and a score was assigned.
# While mice were still in the arena, the number of squares of 11 cm^2 of the arena that the animal stepped into with four legs at the same time was quantified for thirty seconds. […]
# Plasmodium berghei ANKA [2] = assay: Severe non-cerebral malaria model: parasitemia and survival; assay type: in vivo; conditions: BALB/c mice
# Description: (§1) A cryopreserved sample of erythrocytes infected with P. berghei ANKA (kindly provided by Dr. Leonardo J. Carvalho, La Jolla University, San Diego, CA) was thawed and 1 × 10^6 erythrocytes infected with P. berghei ANKA were injected intraperitoneally (i.p.) in the C57BL/6 mice. Parasitemia was monitored from the prepatent period until parasitemia was sufficient for infection of the experimental animal groups (7 male mice per group), i.e., 5–8% parasitemia per mL of blood (injection of 200 µL in each mouse).
# The same protocol was performed with 6- to 8-week-old BALB/c mice also provided from FIOCRUZ (8 male mice per group). […] After 3 days, parasitemia was evaluated by blood smear from a droplet of blood collected from the lateral tail vein of each animal and colored with the hematological Diff-Quick® kit. The survival of the animals was also monitored daily. […]
# C57BL/6 (cerebral malaria model) and BALB/c (non-cerebral malaria model) mice received a single daily dose (100 ng Kg^−1 min^−1) of Ang II (brown line), Ang II-SS (orange line), VIPF (blue line), or vehicle (PBS, black line) for 5 days. […] Parasitemia was monitored by Diff-Quick stained blood smears from day 3 to day 7 for C57BL/6 mice (A) and from day 3 to day 9 for BALB/c mice (B). Percentage of survival for C57BL/6 mice (C) and BALB/c mice (D) mice was monitored daily starting on day 6 p.i. […]
# Plasmodium berghei ANKA [3] = assay: Experimental cerebral malaria (ECM) model: parasitemia and survival; assay type: in vivo, C57BL/6 mice
# Description: Six- to eight-week-old male C57BL/6 mice were provided by the Oswaldo Cruz Foundation (FIOCRUZ—Rio de Janeiro, Brazil). The mice were housed in appropriate cages with free access to food and fresh water in a room with controlled temperature (22–24 °C) with a light/dark cycle of 12 h.
# as §1
# The same protocol was performed with 6- to 8-week-old BALB/c mice also provided from FIOCRUZ (8 male mice per group). Each group was treated one hour before infection (day zero) i.p. at 100 ng Kg^−1 for five consecutive days. The dose used was similar to that used for Ang II in in vivo studies, as described by Gallego-Delgado et al., 2015. […] After 3 days, parasitemia was evaluated by blood smear from a droplet of blood collected from the lateral tail vein of each animal and colored with the hematological Diff-Quick® kit. The survival of the animals was also monitored daily. […]
Molecule,effect on parasitemia (Plasmodium),contractile activity (mouse muscle tissue),SHIRPA behavioral score [1],"mouse survival (Plasmodium berghei ANKA [2]; 100 ng Kg−1 min−1 i.p. daily for 5 days, Kaplan–Meier, log rank vs vehicle, n = 8)","effect on parasitemia (Plasmodium berghei ANKA [2]; 100 ng Kg−1 min−1 i.p. daily until day 4 p.i., blood smear day 3 to 9 p.i., especially at day 9 p.i., vs vehicle)","mouse survival (Plasmodium berghei ANKA [3]; C57BL/6 mice (ECM), 100 ng Kg−1 min−1 i.p. daily for 5 days, Kaplan–Meier, log rank vs vehicle, n = 8)","parasitemia level at day 7 p.i. (Plasmodium berghei ANKA [3]; C57BL/6 mice, 100 ng Kg−1 min−1 i.p. daily until day 4 p.i., first dose 1 h before infection, blood smear, vehicle group reached 18% parasitemia)"
C[C@H](CS)C(=O)N1CCC[C@H]1C(=O)O [captopril],discrete but significant reduction in parasitemia,,,,,,
CC[C@H](C)[C@H](NC(=O)[C@@H](N)C(C)C)C(=O)N1CCC[C@H]1C(=O)N[C@@H](Cc1ccccc1)C(=O)O [VIPF] (H-VIPF-OH),,did not elicit significant contractile activity,,,,,
"CDRVYIHPFC (disulfide 1-10 (inferred)) [Ang II-SS, disulfide bridge-constrained derivative of Ang II]",,did not elicit significant contractile activity,reduced the SHIRPA behavioral score,increased mouse survival,reduced parasitemia,increased mouse survival,approximately 10%
